The values that follow come from ChEMBL document CHEMBL1137511, “Identification of a series of novel derivatives as potent HCV inhibitors by a ligand-based virtual screening optimized procedure” (Bioorg Med Chem, 2007).

As usually defined, the IC50 is the point on the concentration scale where inhibition reaches its midpoint. Higher therefore signals weaker potency.

The assay can be described thus: Inhibition of HCV genotype 1 polymerase. Further details: species or system Hepacivirus hominis.

Molecules are shown by their SMILES.

The compound `O=c1c(C2=NS(=O)(=O)c3ccccc3N2)c(O)c2ccccc2n1NCC1CCCC1` registered an IC50 of 0.747 µM.
To `O=c1c(C2=NS(=O)(=O)c3ccccc3N2)c(O)c2ccccc2n1NCC1CCCCCC1` belongs 1.04 µM; to `O=c1c(C2=NS(=O)(=O)c3ccccc3N2)c(O)c2cccnc2n1Cc1ccccc1`, 5.8 µM; to `O=c1c(C2=NS(=O)(=O)c3ccccc3N2)c(O)c2ccccc2n1NCc1ccccc1`, 5.09 µM.
In the case of `CC(C)CCn1c(=O)c(C2=NS(=O)(=O)c3ccccc3N2)c(O)c2cccnc21` it was 0.81 µM.
In the case of `O=c1c(C2=NS(=O)(=O)c3ccccc3N2)c(O)c2ccccc2n1NC1CCCCC1`, half-maximal inhibition (IC50) was put at 0.356 µM.
In the case of `CC(C)CCn1c(=O)c(C2=NS(=O)(=O)c3cc(NS(=O)(=O)Nc4cccc(C(=O)NCC(N)=O)c4)ccc3N2)c(O)c2cccnc21` it was 0.043 µM; in that of `CC(C)CCn1c(=O)c(C2=NS(=O)(=O)c3cc(NS(N)(=O)=O)ccc3N2)c(O)c2cccnc21`, 0.009 µM.
Take `CC(C)CCn1c(=O)c(C2=NS(=O)(=O)c3cc(NS(=O)(=O)Nc4ccc(C(N)=O)cc4)ccc3N2)c(O)c2cccnc21`: the IC50 is 0.018 µM.
The compound `COCCOC(=O)NS(=O)(=O)Nc1ccc2c(c1)S(=O)(=O)NC(c1c(O)c3cccnc3n(CCC(C)C)c1=O)=N2` yielded an IC50 of 0.087 µM.
To `CC(C)CCn1c(=O)c(C2=NS(=O)(=O)c3cc(NS(=O)(=O)NCCC(N)=O)ccc3N2)c(O)c2cccnc21` belongs 0.02 µM; to `CC(C)CCn1c(=O)c(C2=NS(=O)(=O)c3cc(OCC(=O)N(C)C)ccc3N2)c(O)c2cccnc21`, 0.934 µM.
`CC(C)CCn1c(=O)c(C2=NS(=O)(=O)c3cc(NS(=O)(=O)N(C)C(=O)OCc4ccccc4)ccc3N2)c(O)c2cccnc21` came in with an IC50 of 0.121 µM.
`CC(C)CCn1c(=O)c(C2=NS(=O)(=O)c3cc(NS(=O)(=O)NCCc4ccccc4)ccc3N2)c(O)c2cccnc21` yielded a concentration for half-maximal inhibition (IC50) of 0.018 µM.
On to `C#CCOC(=O)NS(=O)(=O)Nc1ccc2c(c1)S(=O)(=O)N=C(c1c(O)c3cccnc3n(CCC(C)C)c1=O)N2`, for which the concentration for half-maximal inhibition (IC50) came to 0.072 µM.
Compound `CC(C)CCn1c(=O)c(C2=NS(=O)(=O)c3cc(NCC#N)ccc3N2)c(O)c2cccnc21` came in with an IC50 of 0.12 µM.
To `CC(C)CCn1c(=O)c(C2=NS(=O)(=O)c3cc(NS(=O)(=O)NCc4ccccc4)ccc3N2)c(O)c2cccnc21` belongs 0.0055 µM; to `CC(C)CCn1c(=O)c(C2=NS(=O)(=O)c3cc(NS(C)(=O)=O)ccc3N2)c(O)c2cccnc21`, 0.002 µM; to `C=CCOC(=O)NS(=O)(=O)Nc1ccc2c(c1)S(=O)(=O)N=C(c1c(O)c3cccnc3n(CCC(C)C)c1=O)N2`, 0.088 µM.
As for `CC(C)CCn1c(=O)c(C2=NS(=O)(=O)c3cc(NS(=O)(=O)NC(=O)OCCCl)ccc3N2)c(O)c2cccnc21`, the IC50 came to 0.189 µM.
To `CC(C)CCn1c(=O)c(C2=NS(=O)(=O)c3cc(NS(=O)(=O)NCCN)ccc3N2)c(O)c2cccnc21` belongs 0.01 µM.
To `CNS(=O)(=O)Nc1ccc2c(c1)S(=O)(=O)NC(c1c(O)c3cccnc3n(CCC(C)C)c1=O)=N2` belongs 0.014 µM; to `CC(C)CCn1c(=O)c(C2=NS(=O)(=O)c3cc(NS(=O)(=O)NC(=O)OCCC#N)ccc3N2)c(O)c2cccnc21`, 0.035 µM.
To `CC(C)CCn1c(=O)c(C2=NS(=O)(=O)c3cc(NS(=O)(=O)NC(=O)OCc4ccccc4)ccc3N2)c(O)c2cccnc21` belongs 0.058 µM; to `CC(C)CCn1c(=O)c(C2=NS(=O)(=O)c3cc(NS(=O)(=O)NC4CCNCC4)ccc3N2)c(O)c2cccnc21`, 0.032 µM.
`CC(C)CCn1c(=O)c(C2=NS(=O)(=O)c3cc(NS(=O)(=O)C(C)C)ccc3N2)c(O)c2cccnc21` yielded an IC50 of 0.008 µM.
The compound `CC(C)CCn1c(=O)c(C2=NS(=O)(=O)c3cc(NS(=O)(=O)c4ccccc4)ccc3N2)c(O)c2cccnc21` registered an IC50 of 0.041 µM.
To `COc1ccc2c(c1)S(=O)(=O)NC(c1c(O)c3cccnc3n(Cc3ccccc3)c1=O)=N2` belongs 8.31 µM; to `O=c1c(C2=NS(=O)(=O)c3cccc(O)c3N2)c(O)c2cccnc2n1Cc1ccccc1`, 8.37 µM; to `CC(C)CCn1c(=O)c(C2=NS(=O)(=O)c3cc(OCC(N)=O)ccc3N2)c(O)c2cccnc21`, 0.046 µM.
In turn, `Cc1ccc2c(c1)S(=O)(=O)NC(c1c(O)c3cccnc3n(Cc3ccccc3)c1=O)=N2` returned an IC50 of 25.7 µM.
To `CC(C)CCn1c(=O)c(C2=NS(=O)(=O)c3cc(NS(=O)(=O)NCCO)ccc3N2)c(O)c2cccnc21` belongs 0.107 µM.
In the case of `CCCCS(=O)(=O)Nc1ccc2c(c1)S(=O)(=O)NC(c1c(O)c3cccnc3n(CCC(C)C)c1=O)=N2` it was 0.022 µM.
Compound `CC(C)CCn1c(=O)c(C2=NS(=O)(=O)c3cc(OCC(=O)O)ccc3N2)c(O)c2cccnc21` returned an IC50 of 0.367 µM.
To `O=c1c(C2=NS(=O)(=O)c3cccc(Br)c3N2)c(O)c2cccnc2n1Cc1ccccc1` belongs 6.2 µM.
To `CC(C)CCn1c(=O)c(C2=NS(=O)(=O)c3cc(NS(=O)(=O)NC(=O)OCCN)ccc3N2)c(O)c2cccnc21` belongs 0.021 µM.
Compound `CC(C)CCn1c(=O)c(C2=NS(=O)(=O)c3cc(N)ccc3N2)c(O)c2cccnc21` showed a concentration for half-maximal inhibition (IC50) of 0.31 µM.
In the case of `CCCOc1ccc2c(c1)S(=O)(=O)NC(c1c(O)c3cccnc3n(CCC(C)C)c1=O)=N2` it was 1.62 µM.
In the case of `CC(C)CCn1c(=O)c(C2=NS(=O)(=O)c3cc(OCC(=O)OC(C)(C)C)ccc3N2)c(O)c2cccnc21` it was 5 µM; in that of `CNS(=O)(=O)Nc1ccc2c(c1)S(=O)(=O)N=C(c1c(O)c3cccnc3n(NC3CCC3)c1=O)N2`, 87 µM.
In the case of `CC(C)CCn1c(=O)c(C2=NS(=O)(=O)c3cc(NS(=O)(=O)N4CCC4)ccc3N2)c(O)c2cccnc21` it was 0.024 µM.
Turning to `COc1cccc(CNS(=O)(=O)Nc2ccc3c(c2)S(=O)(=O)N=C(c2c(O)c4cccnc4n(CCC(C)C)c2=O)N3)c1`, the IC50 was 0.015 µM.
For the compound `COc1cccc2c1NC(c1c(O)c3cccnc3n(Cc3ccccc3)c1=O)=NS2(=O)=O`, the 50% inhibitory concentration (IC50) is 18 µM.
To `COC(=O)c1ccccc1NS(=O)(=O)Nc1ccc2c(c1)S(=O)(=O)N=C(c1c(O)c3cccnc3n(CCC(C)C)c1=O)N2` belongs 0.129 µM; to `COc1cccc2c1NC(c1c(O)c3cccnc3n(CCC(C)C)c1=O)=NS2(=O)=O`, 17.6 µM.
For `COc1ccc2c(c1)S(=O)(=O)N=C(c1c(O)c3cccnc3n(CCC(C)C)c1=O)N2`, half-maximal inhibition (IC50) required 1.13 µM.
To `CC(C)CCn1c(=O)c(C2=NS(=O)(=O)c3cc(NS(=O)(=O)N4CCCCC4)ccc3N2)c(O)c2cccnc21` belongs 0.051 µM; to `CC(C)CCn1c(=O)c(C2=NS(=O)(=O)c3cc(NS(=O)(=O)N4CCCC4)ccc3N2)c(O)c2cccnc21`, 0.027 µM; to `COC(=O)c1ccc(NS(=O)(=O)Nc2ccc3c(c2)S(=O)(=O)N=C(c2c(O)c4cccnc4n(CCC(C)C)c2=O)N3)cc1`, 0.048 µM.
To `CNC(=O)c1ccc(NS(=O)(=O)Nc2ccc3c(c2)S(=O)(=O)N=C(c2c(O)c4cccnc4n(CCC(C)C)c2=O)N3)cc1` belongs 0.043 µM; to `COC(=O)NS(=O)(=O)Nc1ccc2c(c1)S(=O)(=O)N=C(c1c(O)c3cccnc3n(CCC(C)C)c1=O)N2`, 0.063 µM.
In the case of `O=c1c(C2=NS(=O)(=O)c3ccccc3N2)c(O)c2ccccc2n1NCC1=CCOC=C1` it was 4.63 µM; in that of `O=c1c(C2=NS(=O)(=O)c3cc(Br)ccc3N2)c(O)c2cccnc2n1Cc1ccccc1`, 16.8 µM; in that of `CC(C)CCn1c(=O)c(C2=NS(=O)(=O)c3cc(NS(=O)(=O)NC(=O)OCC(=O)O)ccc3N2)c(O)c2cccnc21`, 0.05 µM.
`CC(C)CCn1c(=O)c(C2=NS(=O)(=O)c3cc(NS(=O)(=O)Nc4cccc(C(N)=O)c4)ccc3N2)c(O)c2cccnc21` showed an IC50 of 0.043 µM.
In the case of `CC(C)CCn1c(=O)c(C2=NS(=O)(=O)c3cc(NC(=O)C(F)(F)F)ccc3N2)c(O)c2cccnc21` it was 0.906 µM.
For the compound `CC(C)CCn1c(=O)c(C2=NS(=O)(=O)c3cc(O)ccc3N2)c(O)c2cccnc21`, the IC50 was 0.39 µM.
In the case of `CC(C)CCn1c(=O)c(C2=NS(=O)(=O)c3cc(NS(=O)(=O)Nc4ccc(C(=O)O)cc4)ccc3N2)c(O)c2cccnc21` it was 0.02 µM; in that of `CC(C)CCn1c(=O)c(C2=NS(=O)(=O)c3cc(NS(=O)(=O)NC4CCCC4)ccc3N2)c(O)c2cccnc21`, 0.039 µM.
As for `CC(C)CCn1c(=O)c(C2=NS(=O)(=O)c3cc(OCC#N)ccc3N2)c(O)c2cccnc21`, the IC50 was 0.141 µM.
In the case of `CCOC(=O)COC(=O)NS(=O)(=O)Nc1ccc2c(c1)S(=O)(=O)NC(c1c(O)c3cccnc3n(CCC(C)C)c1=O)=N2` it was 0.061 µM; in that of `Cc1cccc2c1N=C(c1c(O)c3cccnc3n(Cc3ccccc3)c1=O)NS2(=O)=O`, 6.7 µM.
In turn, `CC(C)CCn1c(=O)c(C2=NS(=O)(=O)c3cc(NS(=O)(=O)NC(=O)OCCOCc4ccccc4)ccc3N2)c(O)c2cccnc21` came in with an IC50 of 0.096 µM.
`CC(C)CCn1c(=O)c(C2=NS(=O)(=O)c3cc(NCC(N)=O)ccc3N2)c(O)c2cccnc21` gave an IC50 of 0.47 µM.
To `CC(C)CCn1c(=O)c(C2=NS(=O)(=O)c3cc(NS(=O)(=O)Nc4cccc(C(=O)O)c4)ccc3N2)c(O)c2cccnc21` belongs 0.115 µM.
To `CC(C)CCn1c(=O)c(C2=NS(=O)(=O)c3cc(NS(=O)(=O)Nc4ccccc4)ccc3N2)c(O)c2cccnc21` belongs 0.041 µM; to `CC(C)CCn1c(=O)c(C2=NS(=O)(=O)c3cc(NS(=O)(=O)NC4CCCCC4)ccc3N2)c(O)c2cccnc21`, 0.067 µM.
To `NS(=O)(=O)Nc1ccc2c(c1)S(=O)(=O)N=C(c1c(O)c3cccnc3n(NC3CCC3)c1=O)N2` belongs 0.0052 µM.
As to `COc1ccc(CNS(=O)(=O)Nc2ccc3c(c2)S(=O)(=O)N=C(c2c(O)c4cccnc4n(CCC(C)C)c2=O)N3)cc1`, the half-inhibitory concentration (IC50) is 0.01 µM.
Take `COc1ccccc1CNS(=O)(=O)Nc1ccc2c(c1)S(=O)(=O)N=C(c1c(O)c3cccnc3n(CCC(C)C)c1=O)N2`: the 50% inhibitory concentration (IC50) came out at 0.057 µM.
On to `CCOC(=O)c1cccc(NS(=O)(=O)Nc2ccc3c(c2)S(=O)(=O)N=C(c2c(O)c4cccnc4n(CCC(C)C)c2=O)N3)c1`, for which half-maximal inhibition (IC50) was put at 0.132 µM.
Compound `CNC(=O)COc1ccc2c(c1)S(=O)(=O)NC(c1c(O)c3cccnc3n(CCC(C)C)c1=O)=N2` yielded a half-maximal inhibitory concentration (IC50) of 0.18 µM.
In the case of `CC(C)CCn1c(=O)c(C2=NS(=O)(=O)c3cc(OCCN)ccc3N2)c(O)c2cccnc21` it was 637 µM.
